Test results reported in patent US7973159B2, “Non-basic melanin concentrating hormone receptor-1 antagonists” (Bristol-Myers Squibb Company, priority 2007, dated 2011).

target: T1, mutated (E4Q, A5T) hMCHR1 receptor (Homo sapiens, UniProt Q99705, A5T/E4Q); test: Radioligand binding assay for assessment of MCHR1 activity; conditions: membranes from stably transfected HEK-293 cells; competition with [Phe13,[125I]Tyr19]-MCH, 90 min
T1 construct: expressed in transfected cells
Experimental: Radioligand Binding Assay for Assessment of MCHR1 Activity
Membranes from stably transfected HEK-293 cells expressing a mutated (E4Q, A5T) hMCHR1 receptor were prepared by dounce homogenization and differential centrifugation. Binding experiments were carried out with 0.5-1.0 ug of membrane protein incubated in a total of 0.2 ml in 25 mM HEPES (pH 7.4) with 10 mM MgCl2, 2 mM EGTA, and 0.1% BSA (Binding Buffer) for 90 min. For competition binding assays, reactions were carried out in the presence of with 0.06-0.1 nM [Phe^13, [^125I]Tyr^19]-MCH and increasing concentrations of unlabeled test molecules. Reactions were terminated by rapid vacuum filtration over 96 well-GFC UNIFILTER® plates pre-coated with 0.075 ml binding buffer containing 1% BSA, and washed 3 times with 0.4 ml of Phospho-buffered Saline (pH 7.4) containing 0.01% TX-100. Filters were dried, 0.05 ml microscint 20 was added to each well and radioactivity was subsequently quantified by scintillation counting on a TOPCOUNT® microplate scintillation counter (Packard). Inhibitory constants were determined by nonlinear least squares analysis using a four parameter logistic equation.

T1 sequence (Q99705 whole entry E4Q/A5T): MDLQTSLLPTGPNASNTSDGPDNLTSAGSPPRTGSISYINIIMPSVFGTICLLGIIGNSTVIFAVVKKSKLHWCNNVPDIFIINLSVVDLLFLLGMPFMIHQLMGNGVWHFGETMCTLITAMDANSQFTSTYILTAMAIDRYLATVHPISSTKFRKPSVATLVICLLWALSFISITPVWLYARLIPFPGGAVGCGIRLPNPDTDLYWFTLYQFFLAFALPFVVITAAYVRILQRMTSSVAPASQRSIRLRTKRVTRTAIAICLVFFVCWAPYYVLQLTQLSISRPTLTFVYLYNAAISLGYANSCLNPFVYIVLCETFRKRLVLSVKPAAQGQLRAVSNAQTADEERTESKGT

Row | Ki [nM] | SMILES
1 | 19 | COc1cc(-n2nnc3cc(-c4ccc(Cl)cc4)sc3c2=O)ccc1OC[C@H]1OC(C)(C)O[C@@H]1C [Example 6]
2 | 4 | COc1cc(-n2ncc3cc(-c4ccc(Cl)cc4)sc3c2=O)ccc1OCC(C)(C)O [Example 9, 2-(4-Chlorophenyl)-6-(4-(2-hydroxy-2-methylpropoxy)-3-methoxyphenyl)-thieno[2,3-d]pyridazin-7(6H)-one]
3 | 5 | COc1cc(-n2nnc3cc(-c4ccc(Cl)cc4)sc3c2=O)ccc1OCC(C)=O [Example 2, 6-(4-Chlorophenyl)-3-(3-methoxy-4-(2-oxopropoxy)phenyl)thieno[3,2-d][1,2,3]triazin-4(3H)-one]
4 | 10 | COc1cc(-n2nnc3cc(-c4ccc(Cl)cc4)sc3c2=O)ccc1OCC(O)C1CC1 (stereo not drawn) [Example 5, 6-(4-Chlorophenyl)-3-(4-(2-cyclopropyl-2-hydroxyethoxy)-3-methoxyphenyl)thieno[3,2-d][1,2,3]triazin-4(3H)-one]
5 | 5 | COc1cc(-n2nnc3cc(-c4ccc(Cl)cc4)sc3c2=O)ccc1OCCO [Example 4, 6-(4-Chlorophenyl)-3-(4-(2-hydroxyethoxy)-3-methoxyphenyl)thieno[3,2-d][1,2,3]triazin-4(3H)-one]
6 | 7 | COc1cc(-n2nnc3cc(-c4ccc(Cl)cc4)sc3c2=O)ccc1OCC(C)O (stereo not drawn) [Example 3, 6-(4-Chlorophenyl)-3-(4-(2-hydroxypropoxy)-3-methoxyphenyl)thieno[3,2-d][1,2,3]triazin-4(3H)-one]
7 | 8 | COc1cc(-n2nnc3cc(-c4ccc(Cl)cc4)sc3c2=O)ccc1OCC(O)C(F)(F)F (stereo not drawn) [Example 8, 6-(4-Chlorophenyl)-3-(3-methoxy-4-(3,3,3-trifluoro-2-hydroxypropoxy)phenyl)thieno[3,2-d][1,2,3]triazin-4(3H)-one]
8 | 3 | COc1cc(-n2nnc3cc(-c4ccc(Cl)cc4)sc3c2=O)ccc1OCC(C)(C)O [Example 1, 6-(4-Chlorophenyl)-3-(4-(2-hydroxy-2-methylpropoxy)-3-methoxyphenyl)-thieno[3,2-d][1,2,3]triazin-4(3H)-one]

Row | SMILES | Ki [nM]
9 | COc1cc(-n2nnc3cc(-c4ccc(Cl)cc4)sc3c2=O)ccc1OC[C@@H](O)[C@@H](C)O [Example 7, 6-(4-Chlorophenyl)-3-(4-((2R,3R)-2,3-dihydroxybutoxy)-3-methoxyphenyl)thieno[3,2-d][1,2,3]triazin-4(3H)-one] | 5
